# According to US20170369492A1 (Takeda Pharmaceutical Company Limited, priority 2014, published 2017):
# Molecular target: T1, human GPR43 (Homo sapiens, UniProt O15552)
# T1 construct: expressed in transfected cells
# T1 sequence (O15552 1-330): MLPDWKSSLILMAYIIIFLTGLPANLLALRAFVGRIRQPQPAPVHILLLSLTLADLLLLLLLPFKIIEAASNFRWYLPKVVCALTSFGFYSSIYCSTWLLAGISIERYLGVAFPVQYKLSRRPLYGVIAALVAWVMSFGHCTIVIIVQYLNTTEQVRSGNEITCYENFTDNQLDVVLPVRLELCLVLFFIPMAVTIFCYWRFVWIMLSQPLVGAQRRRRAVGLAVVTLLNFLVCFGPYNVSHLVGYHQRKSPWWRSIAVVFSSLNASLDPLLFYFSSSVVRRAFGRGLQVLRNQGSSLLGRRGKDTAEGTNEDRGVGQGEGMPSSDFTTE
# Test: Ca-Flux Functional Assay: Determination of Agonist/Positive Allosteric Modulator (PAM) Activity
# Assay type: cell-based
# Conditions: CHO-K1 Gα16 cells stably expressing human GPR43; compound added in the presence of EC20 sodium acetate; intracellular Ca2+ by FLIPR; agonist/PAM activity not distinguished
# Method: Ca-Flux Functional Assay: Determination of Agonist/Positive Allosteric Modulator (PAM) Activity
# GPR43 agonist/PAM activity was determined by measuring changes in intracellular calcium levels using a Ca^2+ sensitive fluorescent dye. The changes in fluorescent signal were monitored by FLIPR (manufactured by Molecular Devices). GPR43 mediated increases in intracellular Ca^2+ concentration were readily detected upon activation with sodium acetate. Prior to the assay (24 hours), CHO-K1 Gα16 cells stably expressing human GPR43 were-seeded in cell culture medium in black, clear-bottom 384-well plates (Corning Inc) and grown overnight at 37° C., 5% CO2. On the day of the assay, cell culture media was removed and cells were loaded with Calcium 5 Dye (Molecular Devices) diluted in HBSS containing 25 mM HEPES, 2.5 mM Probenecid, 0.1% BSA for 1 hour at 37° C., 5% CO2. 10 point half log concentration response curves of sodium acetate from 10 mM were conducted prior to the testing of compounds to calculate the sodium acetate concentration that produces 20% of the maximal response (EC20). Test compounds (at to point half log concentration response curves from 10 μM) were added in the presence of sodium acetate to achieve a final concentration that produces approximately 20% maximal response as calculated from the previous experiment. The changes in fluorescent signal were monitored by FLIPR upon addition of the compound/EC20 sodium acetate mix. The EC50 values were determined from ten point concentration response curves. Curves were generated using the average of two wells for each data point.
# The above assay detects both GPR43 receptor agonists and positive allosteric modulators of the GPR43 receptor, without distinguishing between the two. Activity in either regard is useful in the treatment of conditions associated with GPR43 receptor activity.
row,Structure (SMILES),EC50 [nM]
1,"Nc1c(S(=O)(=O)N2CCC(F)(F)CC2)c2nccnc2n1C1CCCCC1 [Example 69, 5-cyclohexyl-7-((4,4-difluoropiperidin-1-yl)sulfonyl)-5H-pyrrolo[2,3-b]pyrazin-6-amine]",547
2,"Cc1ccc(S(=O)(=O)c2c(N)n(C3CCCCC3)c3ncccc23)cc1 [Example 11, 1-cyclohexyl-3-[(4-methylbenzene)sulfonyl]-1H-pyrrolo[2,3-b]pyridin-2-amine]",753
3,"Nc1c(S(=O)(=O)c2cccs2)c2nccnc2n1C1CCCCC1 [Example 8, 5-cyclohexyl-7-(thiophene-2-sulfonyl)-5H-pyrrolo[2,3-b]pyrazin-6-amine]",118
4,"Cc1ccc(S(=O)(=O)c2c(N)n(C3CCCC3)c3cccnc23)cc1 [Example 10, 1-cyclopentyl-3-[(4-methylbenzene)sulfonyl]-1H-pyrrolo[3,2-b]pyridin-2-amine]",2300
5,"Nc1c(S(=O)(=O)Nc2ccccc2)c2nccnc2n1C1CCCCC1 [Example 41, 6-amino-5-cyclohexyl-N-phenyl-5H-pyrrolo[2,3-b]pyrazine-7-sulfonamide]",585
6,"Nc1c(S(=O)(=O)c2ccccc2)c2cnccc2n1C1CCCCC1 [Example 23, 3-(benzenesulfonyl)-1-cyclohexyl-1H-pyrrolo[3,2-c]pyridin-2-amine]",1050
7,"Nc1c(S(=O)(=O)c2ccccc2)c2ccnnc2n1C1CCCCC1 [Example 28, 5-(benzenesulfonyl)-7-cyclohexyl-7H-pyrrolo[2,3-c]pyridazin-6-amine]",707
8,"Nc1c(S(=O)(=O)c2ccccc2)c2nccnc2n1[C@@H]1C[C@H]2CC[C@@H]1C2 (relative stereo) [Example 53, 5-((1R*,2R*,4S*)-bicyclo[2.2.1]heptan-2-yl)-7-(phenylsulfonyl)-5H-pyrrolo[2,3-b)pyrazin-6-amine]",275
9,"Nc1c(S(=O)(=O)N2CCC(O)CC2)c2nccnc2n1C1CCCCC1 [Example 93, 1-{6-amino-5-cyclohexyl-5H-pyrrolo[2,3-b]pyrazine-7-sulfonyl}piperidin-4-ol]",5700
10,"COc1ncnc2c(S(=O)(=O)c3ccccc3)c(N)n(C3CCOCC3)c12 [Example 40, 7-(benzenesulfonyl)-4-methoxy-5-(oxan-4-yl)-5H-pyrrolo[3,2-d]pyrimidin-6-amine]",7380
11,"Nc1c(S(=O)(=O)c2ccccc2)c2ncnc(OCc3ccccc3)c2n1C1CCC(F)(F)CC1 [Example 30, 7-(benzenesulfonyl)-4-(benzyloxy)-5-(4,4-difluorocyclohexyl)-5H-pyrrolo[3,2-d]pyrimidin-6-amine]",199
12,"Nc1c(S(=O)(=O)N2CC(N3CCCCC3)C2)c2nccnc2n1C1CCCCC1 [Example 100, 5-cyclohexyl-7-[3-(piperidin-1-yl)azetidine-1-sulfonyl]-5H-pyrrolo[2,3-b]pyrazin-6-amine]",3930
13,"COCCNS(=O)(=O)c1c(N)n(C2CCCCC2)c2nccnc12 [Example 90, 6-amino-5-cyclohexyl-N-(2-methoxyethyl)-5H-pyrrolo[2,3-b]pyrazine-7-sulfonamide]",6180
14,"Nc1c(S(=O)(=O)N2CCC(OCC3CC3)CC2)c2nccnc2n1C1CCCCC1 [Example 107, 5-cyclohexyl-7-[4-(cyclopropylmethoxy)piperidine-1-sulfonyl]-5H-pyrrolo[2,3-b]pyrazin-6-amine]",320
15,"Nc1c(S(=O)(=O)NCC2CCCO2)c2nccnc2n1C1CCCCC1 (centres unmarked) [Example 96, 6-amino-5-cyclohexyl-N-(oxolan-2-ylmethyl)-5H-pyrrolo[2,3-b]pyrazine-7-sulfonamide]",1950
16,"Nc1c(S(=O)(=O)Nc2cccnc2)c2nccnc2n1C1CCCCC1 [Example 42, 6-amino-5-cyclohexyl-N-(pyridin-3-yl)-5H-pyrrolo[2,3-b]pyrazine-7-sulfonamide]",2300
17,"CC1(C)CCN(S(=O)(=O)c2c(N)n(C3CCCCC3)c3nccnc23)C1 [Example 75, 5-cyclohexyl-7-(3,3-dimethylpyrrrolidine-1-sulfonyl)-5H-pyrrolo[2,3-b]pyrazin-6-amine]",1190
